# Measurements published in PubChem BioAssay (NCI).
#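 Method: 48-hour compound exposure of cells in 96-well plates, five concentrations, linear interpolation of endpoints. TGI is the concentration that stops growth completely.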
# Experiments:
# Test in all cases: NCI anticancer screen, dose series, 48 h
# A498 renal = system: A498 renal
# CCRF-CEM leukemia = system: CCRF-CEM leukemia
# K-562 leukemia = system: K-562 leukemia
# MDA-MB-231 breast = system: MDA-MB-231 breast
# MDA-MB-435 = system: MDA-MB-435
# MDA-N = system: MDA-N
# NCI/ADR-RES ovarian = system: NCI/ADR-RES ovarian
# SF-268 CNS = system: SF-268 CNS
# SNB-19 CNS = system: SNB-19 CNS
# SNB-75 CNS = system: SNB-75 CNS
# UACC-257 melanoma = system: UACC-257 melanoma
# UO-31 renal = system: UO-31 renal
# HCC-2998 colon = system: HCC-2998 colon
SMILES,TGI (A498 renal) [µM],TGI (CCRF-CEM leukemia) [µM],TGI (K-562 leukemia) [µM],TGI (MDA-MB-231 breast) [µM],TGI (MDA-MB-435) [µM],TGI (MDA-N) [µM],TGI (NCI/ADR-RES ovarian) [µM],TGI (SF-268 CNS) [µM],TGI (SNB-19 CNS) [µM],TGI (SNB-75 CNS) [µM],TGI (UACC-257 melanoma) [µM],TGI (UO-31 renal) [µM],TGI (HCC-2998 colon) [µM]
Cc1ccc(S(=O)(=O)n2ccn3c(=O)cc(C)nc23)cc1,> 10,> 10,> 10,> 10,> 10,> 10,> 10,> 10,> 10,> 10,> 10,> 10,–
C=CCSc1nn(CC=C)cc2ncnc1-2,> 100,> 100,> 100,> 100,> 100,> 100,> 100,> 100,> 100,> 100,> 100,> 100,–
COc1cc2c(cc1OC)-c1cc3ccccc3c(=O)n1CCC2,31.5,33.9,> 81.9,57.2,> 53.7,33.6,32.2,> 100,> 100,> 90.3,> 86.1,61.1,> 64.3
CC(=O)CN=C(C)NNc1ccc([N+](=O)[O-])cc1[N+](=O)[O-],> 100,> 100,> 100,> 100,> 100,> 100,> 100,> 100,> 100,> 100,–,> 100,> 100
CC(C)C1OCC(CO)CO1 (stereo not given),> 100,> 100,–,> 100,> 100,> 100,> 100,> 100,> 100,> 100,> 100,> 100,> 100
COc1cc(CNC(=O)CCCCCCCC/C=C/Br)ccc1O,> 10,> 10,> 10,> 10,> 10,> 10,> 10,> 10,> 10,> 10,> 10,> 10,> 10
COc1cc(Cn2c3c(c4cc(O)ccc42)C(=O)c2ccccc2C3=O)cc(OC)c1,38.6,–,–,23.6,> 100,> 100,28.8,15.5,25.4,–,> 100,30.4,37.3
Cc1c(-c2ccccc2)n(C)c2cn[nH]c(=O)c12,> 100,> 100,> 100,36.9,> 100,> 100,69.4,> 100,> 100,–,> 100,> 100,85.8
COC(=O)[C@]1(c2cc3ccccc3[nH]2)CC2CN(CC(=O)N(C)OC)C1C1OC(C)(C)OC21 (stereo not given in full),91.7,> 100,> 100,> 100,> 100,> 100,> 100,> 100,> 100,> 100,> 100,> 100,> 100
COc1cc(/C=C2\NC(=O)N(/C=C3\C(=O)Oc4ccccc4C3=O)C2=O)ccc1O,> 100,92.6,> 100,> 100,> 100,> 100,> 100,> 100,> 100,77,> 100,> 100,> 100
CS(=O)(=O)C(=Cc1ccccc1Cl)S(C)(=O)=O,> 100,> 100,> 100,> 100,> 100,> 46.4,> 100,> 100,> 100,> 100,> 100,> 100,> 100
COC(=O)C(Cc1ccccc1)NS(=O)(=O)c1ccc(-c2c3nc(c(-c4ccc(S(=O)(=O)NC(Cc5ccccc5)C(=O)OC)cc4)c4ccc([nH]4)c(-c4ccc(S(=O)(=O)NC(Cc5ccccc5)C(=O)OC)cc4)c4nc(c(-c5ccc(S(=O)(=O)NC(Cc6ccccc6)C(=O)OC)cc5)c5ccc2[nH]5)C=C4)C=C3)cc1 (stereo not given),> 100,> 100,> 100,> 100,> 100,> 100,> 100,> 100,> 100,31.5,> 100,> 100,> 100
CCCCc1ccc(Nc2nc(Cl)c3[nH]cnc3n2)cc1,55.4,> 100,> 100,30.2,32.1,43.1,47.7,59.9,43.5,85.4,30.8,72.5,41.2
CCCNc1[nH]c(C(C)=O)c(N)c1C(=S)Nc1ccccc1,> 100,> 100,> 100,> 100,55.9,> 100,> 100,86.8,> 100,> 100,> 100,> 100,> 100
Cc1sc(N=Nc2c(O)[nH]c3ccccc23)nc1-c1ccccc1,32.3,–,–,33.3,66.8,76.4,44.7,38.5,37.3,47,47.8,29.9,51.1
CN1c2ccccc2C2c3c(O)ccc(O)c3C=C([N+](=O)[O-])C21 (stereo not given),5.47,> 100,> 100,7.44,0.366,1.5,> 20,6.54,2.03,> 24.2,0.516,2.1,2.8
Cn1cc(-c2ccc(CCOC3CCCCO3)cc2)c2c(C#N)cccc21 (stereo not given),> 100,> 100,> 100,> 100,> 100,> 100,> 100,> 100,> 100,–,> 100,> 100,> 100
Cc1cc2c3c(ccc4ncc(c43)CN2c2ccc(NS(C)(=O)=O)cc2)[nH]1,> 100,> 100,> 100,68.1,> 100,> 100,> 100,51.5,10.4,44.3,> 100,78.4,> 100

SMILES,TGI (A498 renal) [µM],TGI (CCRF-CEM leukemia) [µM],TGI (K-562 leukemia) [µM],TGI (MDA-MB-231 breast) [µM],TGI (MDA-MB-435) [µM],TGI (MDA-N) [µM],TGI (NCI/ADR-RES ovarian) [µM],TGI (SF-268 CNS) [µM],TGI (SNB-19 CNS) [µM],TGI (SNB-75 CNS) [µM],TGI (UACC-257 melanoma) [µM],TGI (UO-31 renal) [µM],TGI (HCC-2998 colon) [µM]
CC(C)(C)OC(=O)C(C1NC(C(=O)O)C(C)(C)S1)N1C(=O)c2ccccc2C1=O (stereo not given),> 100,> 100,> 100,> 100,> 100,> 100,> 100,> 100,> 100,> 100,> 100,> 100,> 100
C[C@H](CCc1nc(C#N)c(N)o1)[C@H]1CC[C@H]2[C@@H]3[C@@H](O)CC4C[C@@H](O)CC[C@]4(C)[C@H]3C[C@@H](O)[C@]12C (stereo not given in full),> 100,> 25.2,86.4,67.1,48.8,77.8,> 100,> 91.5,57.5,54,50.6,61.8,36.5
CNC(Cc1ccccc1)c1cccc(OC)c1O (stereo not given),> 100,–,> 100,> 100,> 100,> 100,> 100,> 100,> 100,–,53.9,> 100,–
COc1ccc(-c2nc3ccc(C)cc3o2)c(OC)c1,46.5,65.8,> 64.5,50.5,52.9,64.4,99.9,77.4,61.4,54.4,46.5,58.1,45.8
CC[C@H](CCCCC1CC[C@@H]2CC(=O)C[C@H]12)OC (stereo not given in full),> 100,> 100,> 100,> 100,> 100,> 100,> 100,> 100,> 100,> 100,> 100,> 100,> 100
COc1cccc(/C=N/n2c(-c3ccccc3)n[nH]c2=O)c1,> 100,> 100,> 100,> 100,> 100,> 100,> 100,39.8,> 100,93.2,> 100,> 100,> 100
CCCCNc1nc(SC)nc2nc[nH]c12,> 89.2,> 100,> 100,> 100,> 100,> 100,> 100,> 100,> 100,> 100,> 100,> 100,> 100
CC(=O)OCCn1c(Cc2ccc([N+](=O)[O-])cc2)nn(C(C)=O)c1=O,> 100,> 100,> 100,> 100,> 100,> 100,> 100,> 100,> 100,–,> 100,> 100,> 100
CCNC1CC(C(C)(C)NCC)CC=C1C (stereo not given),–,> 100,> 100,> 100,> 100,> 100,> 100,> 100,> 100,> 100,> 100,> 100,> 100
Nc1nc(Cl)cc(Nc2ccc3c(c2)CCC3)n1,> 100,> 100,> 100,> 100,> 100,> 100,> 100,> 100,> 100,–,> 100,> 100,> 100
COC(=O)c1ccccc1CC1Cc2cc3c(cc2C1)CCC3,> 100,39.1,61.1,> 100,84.2,> 100,> 100,> 100,> 100,> 100,73.1,> 100,> 100
COc1cc2c[n+](C)c3c4ccccc4ccc3c2cc1OC,> 65.2,> 100,21.2,14.8,15.6,> 36.7,> 100,6.77,33.6,18.7,21,> 100,42.4
O=C(O)/C(=C\c1ccccc1)Cc1ccccc1,> 100,> 100,> 100,> 100,> 100,> 100,> 100,> 100,> 100,> 100,> 100,> 100,> 100
CCOC(=O)c1sc2nc(SC)nc(Nc3ccc(OC)c(OC)c3)c2c1N,37.3,> 100,> 100,82.4,> 100,> 100,> 100,80.9,56,–,> 100,> 100,> 100
C=CCC1(O)c2cccc(O)c2C(=O)c2c(O)cccc21,79.4,–,> 100,> 100,> 100,45,43,> 100,–,75.2,68.3,> 100,43.7
CN1N=C(c2ccncc2)OC1c1ccc(Cl)c(Cl)c1 (stereo not given),> 100,> 100,> 100,> 100,> 100,> 100,> 100,> 100,> 100,–,> 100,> 100,> 100
O=C1c2c(Br)sc(Br)c2[C@H]2NC(=S)O[C@@H]12,47.2,–,20.7,32.2,29.1,30.6,45.8,30.2,50.8,34.7,31.3,29.8,34.8
Cn1ncc2c(NCCc3ccccc3)nc(Cl)nc21,45.5,–,> 100,39.4,44.9,56.5,59.9,> 100,> 100,76.1,12.3,73,40.3
